Measured values as given in patent US20240099298A1, “BIOINSECTICIDAL COMPOSITIONS CONTAINING MONOTERPENES AND METHODS OF USE THEREOF” (priority 2017, published 2024).
Converted amounts (≈) assume the structure as drawn.

Legend:
adult T. palmi = details: cited from earlier work
rGABARAP^Y174A [1] = target: T1, rGABARAP^Y174A (Frankliniella occidentalis, UniProt A0A6J1T1Q2); assay: ITC binding to rGABARAP mutant; details: read-out: Kd value, ITC
Procedure: The isothermal titration thermal binding measurements were performed with an ITC-200 calorimeter (GE Healthcare, Boston, MA) at 25° C. in a buffer containing 50 mM Tris-HCl and 100 mM NaCl (pH 7.4). […] The MicroCal Origin 7.0 software system was used for data processing. The first run was a pre-run and was excluded from the final data. The amount of protein in the sample pool was constant. […] The experimental bimolecular interaction data from the 18 drops were used to calculate the dissociation constant. The dissociation constant […] was calculated as 1/K (Li, et al. (2018) RSC Advances 8:18952-18958).
(§1) Preparation of rGABARAP Mutant and Interaction Between ME and rGABARAP Mutant. […] DNAman was used to convert the nucleic acid sequence into an amino acid sequence and find the Y174 site. Y174 was mutated to A174. The rGABARAP mutant gene loaded into the pMCSG19 vector and the His tags at both ends of the sequence were retained to construct a prokaryotic expression plasmid. The carrier contained a maltose binding protein (MBP) tag that was not cut for verification. However, MBP and ME were used as treatment controls. The mutant plasmid was constructed in Sangon Biotech (Shanghai, China). The protein expression, purification, and desalting procedures of rGABARAP^Y174A mutant and rGABARAP were the same. Subsequently, the binding kinetics of ME and rGABARAP^Y174A were tested by MST and ITC.

rGABARAP^Y174A [2] = target: T1, rGABARAP^Y174A; assay: MST binding to rGABARAP mutant; details: read-out: Kd value, MST
Procedure: Interaction between ME and rGABARAP. A Nano Temper Monolith NT.115 MST system (Nano Temper, Munich, Germany) was used to assess the binding affinities between the target compounds and rGABARAP according to the published procedures (Zan, et al. (2020) Journal of Agricultural and Food Chemistry 68:6280-6285). Spinosyn A was used as a chemical positive control. Spinosyn A (≥1 nM) can trigger a change of the Cl^− current of insect neuron GABAAR, which is considered to be an insecticidal action mechanism of spinosyn A (Watson (2001) Pesticide Biochemistry and Physiology 71:20-28). Ovalbumin (OVA) (Sangon Biotech, Shanghai, China) is a control protein consisting of 385 amino acid residues. The interaction between OVA and ME was used as a protein control experiment (Huntington, et al. (1995) Protein Science 4:613-621).
as §1

[3] = system: Frankliniella occidentalis second-instar nymphs; assay: whole plant or invertebrate; details: 24 h, second-instar nymphs of F. occidentalis, 24 h after treatment
Procedure: Chemicals. […] These monoterpenes and the positive control spinosyn A (Bosite Technology, Chongqing, China) were dissolved in acetone (10 g/L).
Insects. F. occidentalis Thrips were provided by the Institute of Vegetables and Flowers, Chinese Academy of Agricultural Sciences (Beijing, China), and kept in a box (19 cm×14 cm×20 cm) at 27±1° C., humidity of 50%-60% and a photoperiod of 16:8 h (light:dark). The population was established with sword beans (Canavalia gladiata). Second-instar nymphs with the same growth were tested.
Insect Assays. […] The leaf blade (2 cm×3 cm) was immersed in the solution for 10 s in the test solution, and then air-dried until there were no water drops on the surface. The concentrations were the same as those used in the insecticide-impregnated membrane method. After the chemical film had been formed for 2 h, the infusion leaves were placed in the bottles. The second-instar nymphs were picked with a soft writing brush to make up ten insects per bottle. The bottles were sealed with plastic wrap. 1% Triton X-100 (m/V) aqueous solution as a blank control. Each treatment was repeated four times. The bottles were placed under temperature of 27±1° C., humidity of 50%-60% and photoperiod of 16:8 h (light:dark). […] The insects were touched with a soft brush and numbers of dead and living Thrips were recorded, followed by calculation of the mortality rates.

[4] = T 22-25 °C; cited from earlier work
Aedes aegypti (mosquito) = assay: Median knockdown concentration (KC50) test, mosquito; format: in vivo
Description: (§2) All treatments and controls were in triplicate.
Knockdown Activity of Monoterpenes.

[5] = system: T. castaneum (red flour beetle); assay: Median lethal time (LT50) test, red flour beetle; format: in vivo, Tribolium castaneum
Description: as §2
Toxicity of Monoterpenes as Fumigants. […] Therefore, to determine how fast the monoterpenes act as fumigants, it was necessary to determine their LT50 values for the target organisms.

[6] = system: A. japonicus (parasitic wasp); assay: Median lethal time (LT50) test, parasitic wasp (natural enemy); details: non-target parasitic wasp
Procedure: (§3) Insect Egg Parasitic Wasp (Natural Enemy). […] Both species were purchased from a commercial source. One- to two-day-old adults (after eclosion) were used for fumigation tests.
Median Lethal Time (LT50) and Median Knockdown Concentration (KC50) Tests. Five species of adult insects or natural enemies were tested for LT50 values including melon fly (B. cucuribitae), red flour beetle (T. castaneum), Nitidulidae beetle (H. picinus), parasitic wasp (A. japonicus) and housefly (M. domestica). For each treatment and control, 20 insects at the developmental stages described above were placed individually without food in a 1-L wide-mouth glass bottle (height 19.5 cm, bottom diameter 10.5 cm, mouth i.d. 5.5 cm) containing pieces of tissue paper. […] Five different concentrations of the test chemicals were placed on pieces of cellulose-based qualitative filter paper. Each of the filter papers was placed in a bottle to have 5 appropriate concentrations in serial dilutions. DDVP was the positive control, and no chemical treatments were the negative control. All treatments and controls were in triplicate. Mortality was observed periodically in a 10-30 minute interval for 2 days or until all insects died. The death was defined as no movement when the insects were touched.

[7] = system: T. chilonis (parasitic wasp); details: non-target parasitic wasp, mortality after 15 minutes of exposure
Description: as §3
Median Lethal Concentration Tests. […] The species tested included Thrips (M. usitatus), spider mite (T. cinnabarinus), melon fly (B. cucuribitae), cockroach (B. lateralis), housefly (M. domestica), mosquito (A. aegypti), parasitic wasp (T. chilonis) and fruit fly (Drosophila melanogaster). After being exposed to the test chemicals for one hour, adult Thrips, spider mites, and roaches were transferred to another flask. In addition to fresh water, adult Thrips, spider mites, and roaches were then respectively fed with cowpea, fresh blade of eggplant, and peanut oil via filter. […] Mortality of melon fly was observed after three hours of exposure.

T1 sequence (A0A6J1T1Q2 entry or part of it, stated change not applied): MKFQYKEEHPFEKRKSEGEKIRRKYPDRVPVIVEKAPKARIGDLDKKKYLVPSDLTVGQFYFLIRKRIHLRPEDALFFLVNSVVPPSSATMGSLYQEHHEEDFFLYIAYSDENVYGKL

C=CC(C)(O)CCC=C(C)C (stereo not shown) [Linalool, 3,7-dimethylocta-1,6-dien-3-o1]
LC50, fumigation toxicity (adult T. palmi): 5.5 µg/mL (≈ 35.7 µM)
fold more effective than dichlorvos (adult T. palmi): 15.2 fold
Kd (rGABARAP^Y174A [1]): 8.92 µM
Kd (rGABARAP^Y174A [2]): 16.3 ± 6.79 µM
LC50 [3]: 7 µg/mL (≈ 45.4 µM)
Vp (Pa)/T (° C.) [4]: 21.28/22-25 Pa
time within which the insects responded (Aedes aegypti (mosquito)): ≤ 20 min
KC50 (fiducial limits) (Aedes aegypti (mosquito); 20 Minutes): >243 µg/mL
KC50 (fiducial limits) (Aedes aegypti (mosquito); 30 Minutes): 69.0 µg/mL
LT50 (fiducial limits) [5]: 35.1 h
LT50 (fiducial limits) against A. japonicus [6]: 0.788 (0.71-0.86) hour
LC50 (fiducial limits) against T. chilonis [7]: 2.88 µg/mL (≈ 18.7 µM)
LC90 (fiducial limits) against T. chilonis [7]: 6.24 µg/mL (≈ 40.5 µM)
